Measurements from ChEMBL document CHEMBL3217691, “Discovery and optimization of efficacious neutral 4-amino-6-biphenyl-7,8-dihydropyrimido[5,4-f][1,4]oxazepin-5-one diacylglycerol acyl transferase-1 (DGAT1) inhibitors” (Medchemcomm, 2013).

How the values were obtained:
physchem = details: buffer, pH 7.4
[1] = Oral bioavailability in Han Wistar rat at 2.3 to […]; format: ADME, organism-based; details: in vivo
in vitro [2] = details: human, Caco-2
in vivo = details: Han Wistar, rat, iv
in vitro [3] = details: rat, hepatocytes
[4] = Oral bioavailability in rat at 2 mg/kg; format: ADME, organism-based; details: in vivo
[5] = Half life in mouse at 2 mg/kg, po; format: ADME, organism-based; parameters: dose 2 mg/kg, route oral; details: in vivo
[6] = Half life in mouse at 2 mg/kg, iv; format: ADME, organism-based; parameters: dose 2 mg/kg, route intravenous; details: in vivo
[7] = Half life in rat at 2 mg/kg, po; format: ADME, organism-based; parameters: dose 2 mg/kg, route oral; details: in vivo
[8] = Volume of distribution at steady state in rat plasma at 1 mg/kg, iv and 2 mg/kg, po; format: ADME, organism-based; details: read-out: Vdss
[9] = Oral bioavailability in dog at 0.5 mg/kg; format: ADME, organism-based, Canis lupus familiaris; details: in vivo
[10] = Half life in dog at 0.5 mg/kg, iv; format: ADME, organism-based, Canis lupus familiaris; parameters: dose 0.5 mg/kg, route intravenous; details: in vivo
Mus musculus = assay: Volume of distribution at steady state in mouse plasma at 2 mg/kg, iv and po; format: ADME, organism-based; parameters: dose 2 mg/kg, route oral; details: in vivo
[11] = Oral bioavailability in mouse at 2 mg/kg; format: ADME, organism-based; details: in vivo
Canis familiaris = assay: Volume of distribution at steady state in dog plasma at 0.5 mg/kg, iv and po; format: ADME, organism-based, Canis lupus familiaris; parameters: dose 0.5 mg/kg, route oral; details: in vivo
[12] = Half life in rat at 1 mg/kg, iv; format: ADME, organism-based; parameters: dose 1 mg/kg, route intravenous; details: in vivo
[13] = Clearance in rat plasma at 1 mg/kg, iv and 2 mg/kg, po; format: ADME, organism-based

| logD (physchem) | bioavailability ([1]; at 2.3 to […]) | Papp A→B (in vitro [2]) | hepatocyte CLint (in vitro [3]) | SMILES | also measured |
| --- | --- | --- | --- | --- | --- |
| 3 | 14% | > 10 ×10⁻⁶ cm/s |  | Nc1ncnc2c1C(=O)N(c1ccc(-c3ccccc3Cl)c(F)c1)CCO2 | clearance (in vivo): 18 mL/min/kg |
| 2.4 |  | 48.2 ×10⁻⁶ cm/s | 4.8 µL/min/1e6 cells | N#Cc1ccc(-c2ccc(N3CCOc4ncnc(N)c4C3=O)cc2)c(Cl)c1 |  |
| 3.7 | 110% | 16.2 ×10⁻⁶ cm/s | 9.5 µL/min/1e6 cells | Nc1ncnc2c1C(=O)N(c1ccc(-c3cc(Cl)ccc3Cl)cc1)CCO2 | clearance (in vivo): 12 mL/min/kg |
| 2.5 |  | 54.8 ×10⁻⁶ cm/s | 4.6 µL/min/1e6 cells | N#Cc1cccc(-c2ccc(N3CCOc4ncnc(N)c4C3=O)cc2)c1Cl |  |
| 0.1 |  | 0.2 ×10⁻⁶ cm/s | 4.9 µL/min/1e6 cells | CN(Cc1ccc(-c2ccc(N3CCOc4ncnc(N)c4C3=O)cc2)c(Cl)c1)C(=O)CN |  |
| 3.2 | 150% |  |  | Nc1ncnc2c1C(=O)N(c1ccc(-c3ccc(C(F)F)cc3Cl)cc1)CCO2 |  |
| 2.1 |  | > 10 ×10⁻⁶ cm/s |  | N#Cc1cccc(Cl)c1-c1ccc(N2CCOc3ncnc(N)c3C2=O)cc1 |  |
| 0.9 | 3% |  |  | Nc1ncnc2c1C(=O)N(c1ccc(-c3ccc(CC(=O)N4CCNC(=O)C4)cc3Cl)cc1)CCO2 |  |
| 1.8 | 100% | 14.5 ×10⁻⁶ cm/s |  | CC(=O)NCc1ccc(-c2ccc(N3CCOc4ncnc(N)c4C3=O)cc2)c(Cl)c1 |  |
| 1.1 | 15% | 1.1 ×10⁻⁶ cm/s |  | Nc1ncnc2c1C(=O)N(c1ccc(-c3ccc(CC(=O)N4CC[C@@H](O)C4)cc3Cl)cc1)CCO2 |  |
| 3.8 | 150% |  | 9.3 µL/min/1e6 cells | Nc1ncnc2c1C(=O)N(c1ccc(-c3cccc(Cl)c3Cl)cc1)CCO2 | clearance (in vivo): 24 mL/min/kg |
| 1.1 |  |  | < 3.1 µL/min/1e6 cells | Nc1ncnc2c1C(=O)N(c1ccc(-c3ccc(CC(=O)N4CC(O)C4)cc3Cl)cc1)CCO2 |  |
| 2.4 |  | > 10 ×10⁻⁶ cm/s |  | Nc1ncnc2c1C(=O)N(c1ccc(-c3ccccc3)cc1)CCO2 |  |
|  | 61% |  | < 2.8 µL/min/1e6 cells | CS(=O)(=O)Cc1ccc(-c2ccc(N3CCOc4ncnc(N)c4C3=O)cc2)c(Cl)c1 | clearance (in vivo): 5 mL/min/kg |
| 3.4 |  | > 10 ×10⁻⁶ cm/s |  | Cc1cccc(Cl)c1-c1ccc(N2CCOc3ncnc(N)c3C2=O)cc1 |  |
| 2.9 |  | > 10 ×10⁻⁶ cm/s |  | Nc1ncnc2c1C(=O)N(c1ccc(-c3c(F)cccc3F)c(F)c1)CCO2 |  |
| 1.3 |  |  | 35 µL/min/1e6 cells | NC(=O)Cc1ccc(-c2ccc(N3CCOc4ncnc(N)c4C3=O)cc2)c(Cl)c1 |  |

| logD (physchem) | bioavailability ([1]; at 2.3 to […]) | Papp A→B (in vitro [2]) | hepatocyte CLint (in vitro [3]) | SMILES | also measured |
| --- | --- | --- | --- | --- | --- |
| 1.1 |  | 6.4 ×10⁻⁶ cm/s | < 2 µL/min/1e6 cells | Nc1ncnc2c1C(=O)N(c1ccc(-c3ccc(CN4CC[C@H](O)C4=O)cc3Cl)cc1)CCO2 |  |
| 2.9 | 65% | 32.5 ×10⁻⁶ cm/s | 11.1 µL/min/1e6 cells | Nc1ncnc2c1C(=O)N(c1ccc(-c3ccccc3Cl)cc1)CCO2 | clearance (in vivo): 21 mL/min/kg |
| -1 |  | 0.2 ×10⁻⁶ cm/s | < 2 µL/min/1e6 cells | CN(Cc1ccc(-c2ccc(N3CCOc4ncnc(N)c4C3=O)cc2)c(Cl)c1)C(=O)CCCN |  |
| 2.7 |  | > 10 ×10⁻⁶ cm/s |  | Cc1ccccc1-c1ccc(N2CCOc3ncnc(N)c3C2=O)cc1 |  |
| 1.8 | 21% | 11.3 ×10⁻⁶ cm/s |  | CS(=O)(=O)NCc1ccc(-c2ccc(N3CCOc4ncnc(N)c4C3=O)cc2)c(Cl)c1 |  |
| 2.5 |  | > 10 ×10⁻⁶ cm/s |  | Nc1ncnc2c1C(=O)N(c1ccc(-c3c(F)cccc3F)cc1)CCO2 |  |
| 1.9 |  | 19.7 ×10⁻⁶ cm/s | 11 µL/min/1e6 cells | CC(=O)N(C)Cc1ccc(-c2ccc(N3CCOc4ncnc(N)c4C3=O)cc2)c(Cl)c1 |  |
|  |  | 16.8 ×10⁻⁶ cm/s |  | Nc1ncnc2c1C(=O)N(c1ccc(-c3ccc(CO)cc3Cl)cc1)CCO2 |  |
| -0.4 |  |  | 14 µL/min/1e6 cells | Nc1ncnc2c1C(=O)N(c1ccc(-c3ccc(CC(=O)O)cc3Cl)cc1)CCO2 |  |
|  | 93% | > 10 ×10⁻⁶ cm/s | < 2 µL/min/1e6 cells | Nc1ncnc2c1C(=O)N(c1ccc(-c3ccccc3F)cc1)CCO2 | bioavailability [4]: 93%; half-life [5]: 3.1 h; half-life [6]: 3.5 h; half-life [7]: 3.3 h; Vd [8]: 1.9 L/kg; bioavailability [9]: 76%; half-life [10]: 1.2 h; Vdss (Mus musculus): 0.6 L/kg; bioavailability [11]: > 100%; Vdss (Canis familiaris): 2.4 L/kg; half-life [12]: 6.7 h; clearance [13]: 7.3 mL/min/kg; clearance (in vivo): 7 mL/min/kg |
| 3.5 | 14% | 16.6 ×10⁻⁶ cm/s |  | Cc1ccc(-c2ccc(N3CCOc4ncnc(N)c4C3=O)cc2)c(Cl)c1 |  |
|  | 28% |  | 5.9 µL/min/1e6 cells | CN(Cc1ccc(-c2ccc(N3CCOc4ncnc(N)c4C3=O)cc2)c(Cl)c1)S(C)(=O)=O | clearance (in vivo): 5 mL/min/kg |
| -0.5 |  | 0.3 ×10⁻⁶ cm/s | < 2 µL/min/1e6 cells | CN(Cc1ccc(-c2ccc(N3CCOc4ncnc(N)c4C3=O)cc2)c(Cl)c1)C(=O)CCN |  |
| > 3.9 |  |  |  | Nc1ncnc2c1C(=O)N(c1ccc(-c3ccc(Cl)cc3Cl)cc1)CCO2 | bioavailability [1]: 87% |
| 1.5 | 68% | > 10 ×10⁻⁶ cm/s |  | Nc1ncnc2c1C(=O)N(c1ccc(-c3ncccc3Cl)cc1)CCO2 |  |
|  |  |  | 18.4 µL/min/1e6 cells | Nc1ncnc2c1C(=O)N(c1ccc(-c3ccc(Cn4cccnc4=O)cc3Cl)cc1)CCO2 |  |
